# From PubChem BioAssay (NCI)
#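 Abbreviation: GI50, concentration required for 50% inhibition of growth. At the TGI there is no net growth.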
# How the values were obtained:
# Assay in all cases: DTP human tumour cell line panel, 384-well format
# [1] = system: A498 renal
# [2] = system: A549 NSCLC
# [3] = system: ACHN renal
# [4] = system: BT-549 breast
# [5] = system: CCRF-CEM leukemia
# [6] = system: COLO 205 colon
# [7] = system: DU-145 prostate
# [8] = system: HCC-2998 colon
# [9] = system: HCT-116 colon
# [10] = system: HCT-15 colon
# [11] = system: HOP-62 NSCLC
# [12] = system: HOP-92 NSCLC
# [13] = system: HS 578T breast
# [14] = system: HT29 colon
# [15] = system: IGROV1 ovarian
# [16] = system: K-562 leukemia
# [17] = system: KM12 colon
# [18] = system: LOX IMVI melanoma
# [19] = system: MALME-3M melanoma
# [20] = system: MCF7 breast
# [21] = system: MDA-MB-231 breast
# [22] = system: MDA-MB-468 breast
# [23] = system: MOLT-4 leukemia
# [24] = system: NCI-H226 lung
# [25] = system: NCI-H23 lung
# [26] = system: NCI-H322M lung
# [27] = system: NCI/ADR-RES ovarian
# [28] = system: OVCAR-3 ovarian
# [29] = system: OVCAR-4 ovarian
# [30] = system: OVCAR-5 ovarian
# [31] = system: OVCAR-8 ovarian
# [32] = system: PC-3 prostate
# [33] = system: RXF 393 renal
# [34] = system: SF-268 CNS
# [35] = system: SF-295 CNS
# [36] = system: SF-539 CNS
# [37] = system: SK-MEL-28 melanoma
# [38] = system: SK-OV-3 ovarian
# [39] = system: SN12C renal
# [40] = system: SNB-19 CNS
# [41] = system: SNB-75 CNS
# [42] = system: SW-620 colon
# [43] = system: TK-10 renal
# [44] = system: UACC-257 melanoma
# [45] = system: UACC-62 melanoma
# [46] = system: UO-31 renal
# [47] = system: 786-0 renal
# [48] = system: CAKI-1 renal
# [49] = system: EKVX NSCLC
# [50] = system: HL-60(TB) leukemia
# [51] = system: M14 melanoma
# [52] = system: MDA-MB-435 melanoma
# [53] = system: NCI-H460 NSCLC
# [54] = system: NCI-H522 lung
# [55] = system: RPMI-8226 leukemia
# [56] = system: SK-MEL-2 melanoma
# [57] = system: SK-MEL-5 melanoma
# [58] = system: SR leukemia
# [59] = system: T-47D breast
# [60] = system: U251 glioblastoma
smiles,measurement,setting,value
COc1cc(Nc2ncc3c(n2)-c2ccc(Cl)cc2C(c2c(F)cccc2OC)=NC3)ccc1C(=O)O,GI50,[1],0.0833 µM
same,TGI,[1],29.6 µM
same,GI50,[2],0.0795 µM
same,TGI,[2],16.8 µM
same,GI50,[3],1.81 µM
same,TGI,[3],19.7 µM
same,GI50,[4],0.0986 µM
same,TGI,[4],20.1 µM
same,GI50,[5],0.0192 µM
same,TGI,[5],0.0773 µM
same,GI50,[6],0.0376 µM
same,TGI,[6],> 100 µM
same,GI50,[7],10.6 µM
same,TGI,[7],26.6 µM
same,GI50,[8],3.24 µM
same,TGI,[8],47.9 µM
same,GI50,[9],0.0293 µM
same,TGI,[9],25.2 µM
same,GI50,[10],0.0581 µM
same,TGI,[10],37.2 µM
same,GI50,[11],0.179 µM
same,TGI,[11],31.9 µM
same,GI50,[12],2.18 µM
same,TGI,[12],17.2 µM
same,GI50,[13],0.0403 µM
same,TGI,[13],12.4 µM
same,GI50,[14],1.49 µM
same,TGI,[14],> 100 µM
same,GI50,[15],0.743 µM
same,TGI,[15],13.5 µM
same,GI50,[16],0.0367 µM
same,TGI,[16],11.5 µM
same,GI50,[17],0.0838 µM
same,TGI,[17],> 100 µM
same,GI50,[18],0.725 µM
same,TGI,[18],17.8 µM
same,GI50,[19],17.9 µM
same,TGI,[19],60.7 µM
same,GI50,[20],1.7 µM
same,TGI,[20],> 100 µM
same,GI50,[21],2.72 µM
same,TGI,[21],23.6 µM
same,GI50,[22],0.0199 µM
same,TGI,[22],0.0534 µM
same,TGI,[23],0.0209 µM
same,GI50,[24],1.28 µM
same,TGI,[24],10.9 µM
same,GI50,[25],1.26 µM
same,TGI,[25],14.9 µM
same,GI50,[26],19.3 µM
same,TGI,[26],> 100 µM
same,GI50,[27],0.369 µM
same,TGI,[27],31.4 µM
same,GI50,[28],0.0915 µM
same,TGI,[28],14.6 µM
same,GI50,[29],9.41 µM
same,TGI,[29],50.4 µM
same,GI50,[30],4.4 µM
same,TGI,[30],30.3 µM
same,GI50,[31],7.27 µM
same,TGI,[31],36.9 µM
same,GI50,[32],12 µM
same,TGI,[32],45.2 µM
same,GI50,[33],0.0513 µM
same,TGI,[33],7.31 µM
same,GI50,[34],0.0113 µM
same,TGI,[34],0.0549 µM
same,GI50,[35],0.088 µM
same,TGI,[35],24.6 µM
same,GI50,[36],0.0651 µM
same,TGI,[36],25.2 µM
same,GI50,[37],13.2 µM
same,TGI,[37],51.7 µM
same,GI50,[38],4.11 µM
same,TGI,[38],22.6 µM
same,GI50,[39],0.0522 µM
same,TGI,[39],17 µM
same,GI50,[40],9.37 µM
same,TGI,[40],61.9 µM
same,GI50,[41],3.1 µM
same,TGI,[41],17 µM
same,GI50,[42],0.202 µM
same,TGI,[42],28.1 µM
same,GI50,[43],4.77 µM
same,TGI,[43],21.7 µM
same,GI50,[44],13.7 µM
same,TGI,[44],52.6 µM
same,GI50,[45],0.768 µM
same,TGI,[45],35.4 µM
same,GI50,[46],4.32 µM
same,TGI,[46],20.7 µM
O=C(Cc1ccccc1)Nc1nnc(CCSCCc2nnc(NC(=O)Cc3ccccc3)s2)s1,GI50,[47],2.27 µM
same,TGI,[47],8.96 µM
same,GI50,[1],3.13 µM
same,TGI,[1],11.9 µM
same,GI50,[2],1.06 µM
same,TGI,[2],5.54 µM
same,GI50,[3],> 30 µM
same,TGI,[3],> 100 µM
same,GI50,[4],9.85 µM
same,TGI,[4],30.5 µM
same,GI50,[48],8.03 µM
same,TGI,[48],> 41 µM
same,GI50,[5],11.6 µM
same,TGI,[5],> 100 µM
same,GI50,[6],> 100 µM
same,TGI,[6],> 100 µM
same,GI50,[7],14 µM
same,TGI,[7],> 100 µM
same,GI50,[49],17.2 µM
same,TGI,[49],> 92.9 µM
same,GI50,[8],39.7 µM
same,TGI,[8],> 100 µM
same,GI50,[9],> 72.6 µM
same,TGI,[9],> 100 µM
same,GI50,[10],> 100 µM
same,TGI,[10],> 100 µM
same,GI50,[50],28.3 µM
same,TGI,[50],> 100 µM
same,GI50,[11],2.92 µM
same,TGI,[11],11.9 µM
same,GI50,[12],3.05 µM
same,TGI,[12],14.8 µM
same,GI50,[13],0.9 µM
same,TGI,[13],3.37 µM
same,GI50,[14],> 100 µM
same,TGI,[14],> 100 µM
same,GI50,[15],29.1 µM
same,TGI,[15],> 94 µM
same,GI50,[16],10.1 µM
same,TGI,[16],> 100 µM
same,GI50,[17],1.94 µM
same,TGI,[17],> 100 µM
same,GI50,[18],3.99 µM
same,TGI,[18],23.1 µM
same,GI50,[51],> 43.4 µM
same,TGI,[51],> 88.8 µM
same,GI50,[19],16.1 µM
same,TGI,[19],45.5 µM
same,GI50,[20],> 28.5 µM
same,TGI,[20],> 75.1 µM
same,GI50,[21],3.07 µM
same,TGI,[21],28.9 µM
same,GI50,[52],30 µM
same,TGI,[52],> 100 µM
same,GI50,[22],29.7 µM
same,TGI,[22],> 83.2 µM
same,GI50,[23],> 39.2 µM
same,TGI,[23],> 100 µM
same,GI50,[24],7.56 µM
same,TGI,[24],31.3 µM
same,GI50,[25],16.1 µM
same,TGI,[25],39.7 µM
same,GI50,[26],0.393 µM
same,TGI,[26],2.21 µM
same,GI50,[53],10.8 µM
same,TGI,[53],> 100 µM
same,GI50,[54],2.92 µM
same,TGI,[54],15.1 µM
same,GI50,[27],> 100 µM
same,TGI,[27],> 100 µM
same,GI50,[28],7.24 µM
same,TGI,[28],> 60.5 µM
same,GI50,[29],13.2 µM
same,TGI,[29],40.5 µM
same,GI50,[30],16.7 µM
same,TGI,[30],> 100 µM
same,GI50,[31],4.38 µM
same,TGI,[31],17.9 µM
same,GI50,[32],13.4 µM
same,TGI,[32],35 µM
same,GI50,[55],1.42 µM
same,GI50,[33],1.42 µM
same,TGI,[33],4.88 µM
same,GI50,[34],2.16 µM
same,TGI,[34],9.86 µM
same,GI50,[35],9.57 µM
same,TGI,[35],26.4 µM
same,GI50,[36],3.16 µM
same,TGI,[36],18.2 µM
same,GI50,[56],3.07 µM
same,TGI,[56],10.7 µM
same,GI50,[37],21.7 µM
same,TGI,[37],> 61.2 µM
same,GI50,[57],10.4 µM
same,TGI,[57],52.5 µM
same,GI50,[38],15.5 µM
same,TGI,[38],40.4 µM
same,GI50,[39],3.29 µM
same,TGI,[39],19.5 µM
same,GI50,[40],19.4 µM
same,TGI,[40],48 µM
same,GI50,[41],8.91 µM
same,TGI,[41],27.2 µM
same,GI50,[58],0.544 µM
same,TGI,[58],> 100 µM
same,GI50,[42],> 60.9 µM
same,TGI,[42],> 100 µM
same,GI50,[59],27.3 µM
same,TGI,[59],> 88.3 µM
same,GI50,[43],18 µM
same,TGI,[43],62.2 µM
same,GI50,[60],3.13 µM
same,TGI,[60],21.4 µM
same,GI50,[44],13.5 µM
same,TGI,[44],> 76.6 µM
same,GI50,[45],8.39 µM
same,TGI,[45],31.1 µM
same,GI50,[46],46 µM
same,TGI,[46],> 100 µM
